Measured values: patent US12458025B2 (priority 2020, dated 2025)
Read-outs that look alike come from different tables or passages of the source.

How the values were obtained:
[1] = tested on: Candidatus Liberibacter asiaticus (CLas); type: cell-based; details: 25 μM, 72 h; tetracycline 500 ppm
[2] = tested on: Pseudomonas syringae (Gram negative); assay: Bacterial culture growth inhibition, cell density (OD: 600); type: cell-based; details: 24 h; for growth inhibition significance vs untreated (asterisks): N=4; for cell density (OD: 600): untreated 1.82
Protocol: These compounds were also tested against other phytobacteria. The respective bacterial cultures were grown in the presence of multiple concentrations of a compound (μM) for 24 h, followed by cell density measurements (OD: 600). […]

[3] = tested on: Candidatus Liberibacter solanacearum (CLso); type: in vivo, potato (Solanum tuberosum L. var. Atlantic); details: foliar spray 10 and 25 μM twice a week, 28 dpi; for CLso titers by qPCR: vs untreated controls; for disease symptoms (chlorosis, necrosis, leaf curling and wilting): vs untreated plants
[4] = tested on: Candidatus Liberibacter solanacearum (CLso); type: cell-based; details: re-test, five biological replicates, 72 h; tetracycline 250 ppm
[5] = tested on: Agrobacterium tumefaciens (Gram negative); assay: Bacterial culture growth inhibition, cell density (OD: 600); type: cell-based; details: for cell density (OD: 600) / growth inhibition significance vs untreated (asterisks): 24 h; for cell density (OD: 600): untreated 1.12; for growth inhibition significance vs untreated (asterisks): N=4
[6] = tested on: Clavibacter michiganensis (Gram positive); assay: as above; type: cell-based; details: for cell density (OD: 600): untreated 1.61
[7] = cited from earlier work
[8] = tested on: bacteria, fungi, and the superbug MRSA; details: agar patch studies; cited from earlier work

CN(C)CCOC(=O)C(c1ccccc1)C1(O)CCCC1.Cl (stereo not drawn) [Cyclopentolate hydrochloride]
inhibition of CLas (FIG. 1c) [1]: inhibited | growth inhibition significance vs untreated (asterisks) ([2]; 5 μM): * (effective, *P≤0.05) | cell density (OD: 600) ([2]; 5 μM): 1.78 | cell density (OD: 600) ([2]; 10 μM): 1.79 | growth inhibition significance vs untreated (asterisks) ([2]; 20 μM): * (effective, *P≤0.05) | cell density (OD: 600) ([2]; 20 μM): 1.77 | growth inhibition significance vs untreated (asterisks) ([2]; 50 μM): ** (highly effective, **P≤0.001) | cell density (OD: 600) ([2]; 50 μM): 1.73 | CLso titers by qPCR [3]: lowered CLso titers | disease symptoms (chlorosis, necrosis, leaf curling and wilting) [3]: clearly lower level of disease symptoms | inhibition of CLso (FIG. 1b) [4]: inhibited | cell density (OD: 600) ([5]; 5 μM): 1.08 | cell density (OD: 600) ([5]; 10 μM): 1.11 | cell density (OD: 600) ([5]; 20 μM): 1.11 | cell density (OD: 600) ([5]; 50 μM): 1.12 | cell density (OD: 600) ([6]; 5 μM, 24 h): 1.64 | cell density (OD: 600) ([6]; 10 μM, 24 h): 1.60 | cell density (OD: 600) ([6]; 20 μM, 24 h): 1.59 | cell density (OD: 600) ([6]; 50 μM, 24 h): 1.62

Cl.NCCCCCC(=O)O [Aminocaproic acid hydrochloride, 6-aminohexanoic acid]
cell density (OD: 600) ([2]; 5 μM): 1.80 | cell density (OD: 600) ([2]; 10 μM): 1.81 | cell density (OD: 600) ([2]; 20 μM): 1.80 | growth inhibition significance vs untreated (asterisks) ([2]; 50 μM): * (effective, *P≤0.05) | cell density (OD: 600) ([2]; 50 μM): 1.78 | cell density (OD: 600) ([5]; 5 μM): 1.17 | cell density (OD: 600) ([5]; 10 μM): 1.16 | cell density (OD: 600) ([5]; 20 μM): 1.10 | cell density (OD: 600) ([5]; 50 μM): 1.11 | solubility ([7]; in chloroform): practically insoluble | solubility ([7]; in methanol): sparingly soluble | solubility ([7]; in water, acid, and alkaline solutions): soluble | cell density (OD: 600) ([6]; 5 μM, 24 h): 1.64 | cell density (OD: 600) ([6]; 10 μM, 24 h): 1.64 | cell density (OD: 600) ([6]; 20 μM, 24 h): 1.66 | cell density (OD: 600) ([6]; 50 μM, 24 h): 1.59

CCn1nc(C(=O)O)c(=O)c2cc3c(cc21)OCO3 [Cinoxacin, 1-ethyl-1,4-dihydro-4-oxo-[1,3] dioxolo [4,5-g] cinnoline-3-carboxylic acid]
growth inhibition significance vs untreated (asterisks) ([2]; 5 μM): * (effective, *P≤0.05) | cell density (OD: 600) ([2]; 5 μM): 1.77 | growth inhibition significance vs untreated (asterisks) ([2]; 10 μM): * (effective, *P≤0.05) | cell density (OD: 600) ([2]; 10 μM): 1.76 | growth inhibition significance vs untreated (asterisks) ([2]; 20 μM): ** (highly effective, **P≤0.001) | cell density (OD: 600) ([2]; 20 μM): 1.72 | growth inhibition significance vs untreated (asterisks) ([2]; 50 μM): ** (highly effective, **P≤0.001) | cell density (OD: 600) ([2]; 50 μM): 1.76 | effective against Agrobacterium tumefaciens [5]: effective | cell density (OD: 600) ([5]; 5 μM): 1.17 | cell density (OD: 600) ([5]; 10 μM): 1.11 | cell density (OD: 600) ([5]; 20 μM): 1.13 | growth inhibition significance vs untreated (asterisks) ([5]; 50 μM): * (effective, *P≤0.05) | cell density (OD: 600) ([5]; 50 μM): 0.94 | cell density (OD: 600) ([6]; 5 μM, 24 h): 1.63 | cell density (OD: 600) ([6]; 10 μM, 24 h): 1.64 | cell density (OD: 600) ([6]; 20 μM, 24 h): 1.59 | cell density (OD: 600) ([6]; 50 μM, 24 h): 1.57

Cc1cc(O)cc(C)c1Cl [Chloroxylenol, 4-chloro-3,5-dimethylphenol]
inhibition of CLas (FIG. 1c) [1]: inhibited | cell density (OD: 600) ([2]; 5 μM): 1.82 | cell density (OD: 600) ([2]; 10 μM): 1.81 | growth inhibition significance vs untreated (asterisks) ([2]; 20 μM): ** (highly effective, **P≤0.001) | cell density (OD: 600) ([2]; 20 μM): 1.76 | growth inhibition significance vs untreated (asterisks) ([2]; 50 μM): ** (highly effective, **P≤0.001) | cell density (OD: 600) ([2]; 50 μM): 1.30 | time to kill a wide variety of microbes [8]: ≤ 15 s | CLso titers by qPCR [3]: lowered CLso titers | disease symptoms (chlorosis, necrosis, leaf curling and wilting) [3]: clearly lower level of disease symptoms | inhibition of CLso (FIG. 1b) [4]: inhibited | effective against Agrobacterium tumefaciens [5]: effective | cell density (OD: 600) ([5]; 5 μM): 1.12 | cell density (OD: 600) ([5]; 10 μM): 1.06 | cell density (OD: 600) ([5]; 20 μM): 0.99 | growth inhibition significance vs untreated (asterisks) ([5]; 50 μM): * (effective, *P≤0.05) | cell density (OD: 600) ([5]; 50 μM): 0.92 | effective against Clavibacter michiganensis [6]: effective | cell density (OD: 600) ([6]; 5 μM, 24 h): 1.59 | cell density (OD: 600) ([6]; 10 μM, 24 h): 1.56 | cell density (OD: 600) ([6]; 20 μM, 24 h): 1.52 | growth inhibition significance vs untreated (asterisks) ([6]; 50 μM, 24 h, N=4): ** (highly effective, **P≤0.001) | cell density (OD: 600) ([6]; 50 μM, 24 h): 1.38

CN(C)CCOC(c1ccc(Cl)cc1)c1ccccn1.O=C(O)/C=C\C(=O)O (stereo not drawn) [Carbinoxamine maleate]
cell density (OD: 600) ([2]; 5 μM): 1.81 | cell density (OD: 600) ([2]; 10 μM): 1.81 | cell density (OD: 600) ([2]; 20 μM): 1.81 | growth inhibition significance vs untreated (asterisks) ([2]; 50 μM): * (effective, *P≤0.05) | cell density (OD: 600) ([2]; 50 μM): 1.77 | cell density (OD: 600) ([5]; 5 μM): 1.10 | cell density (OD: 600) ([5]; 10 μM): 1.08 | cell density (OD: 600) ([5]; 20 μM): 1.14 | cell density (OD: 600) ([5]; 50 μM): 1.20 | cell density (OD: 600) ([6]; 5 μM, 24 h): 1.68 | cell density (OD: 600) ([6]; 10 μM, 24 h): 1.63 | cell density (OD: 600) ([6]; 20 μM, 24 h): 1.58 | cell density (OD: 600) ([6]; 50 μM, 24 h): 1.59

CCCNC(=O)NS(=O)(=O)c1ccc(Cl)cc1 [Chlorpropamide]
growth inhibition significance vs untreated (asterisks) ([2]; 5 μM): ** (highly effective, **P≤0.001) | cell density (OD: 600) ([2]; 5 μM): 1.77 | growth inhibition significance vs untreated (asterisks) ([2]; 10 μM): * (effective, *P≤0.05) | cell density (OD: 600) ([2]; 10 μM): 1.78 | growth inhibition significance vs untreated (asterisks) ([2]; 20 μM): ** (highly effective, **P≤0.001) | cell density (OD: 600) ([2]; 20 μM): 1.76 | growth inhibition significance vs untreated (asterisks) ([2]; 50 μM): * (effective, *P≤0.05) | cell density (OD: 600) ([2]; 50 μM): 1.77 | effective against Agrobacterium tumefaciens [5]: effective | cell density (OD: 600) ([5]; 5 μM): 1.14 | cell density (OD: 600) ([5]; 10 μM): 1.14 | cell density (OD: 600) ([5]; 20 μM): 1.17 | cell density (OD: 600) ([5]; 50 μM): 1.16 | effective against Clavibacter michiganensis [6]: effective | cell density (OD: 600) ([6]; 5 μM, 24 h): 1.67 | cell density (OD: 600) ([6]; 10 μM, 24 h): 1.65 | cell density (OD: 600) ([6]; 20 μM, 24 h): 1.63 | cell density (OD: 600) ([6]; 50 μM, 24 h): 1.56

COc1ccc(C2COc3c(ccc(O)c3OC)C2)c(OC)c1O (single isomer, unassigned; (-)) [Duartin (−), (−)-duartin]
inhibition of CLas (FIG. 1c) [1]: inhibited | growth inhibition significance vs untreated (asterisks) ([2]; 5 μM): ** (highly effective, **P≤0.001) | cell density (OD: 600) ([2]; 5 μM): 1.77 | growth inhibition significance vs untreated (asterisks) ([2]; 10 μM): ** (highly effective, **P≤0.001) | cell density (OD: 600) ([2]; 10 μM): 1.78 | cell density (OD: 600) ([2]; 20 μM): 1.79 | growth inhibition significance vs untreated (asterisks) ([2]; 50 μM): ** (highly effective, **P≤0.001) | cell density (OD: 600) ([2]; 50 μM): 1.76 | CLso titers by qPCR [3]: lowered CLso titers | disease symptoms (chlorosis, necrosis, leaf curling and wilting) [3]: clearly lower level of disease symptoms | inhibition of CLso (FIG. 1b) [4]: inhibited | cell density (OD: 600) ([5]; 5 μM): 1.10 | cell density (OD: 600) ([5]; 10 μM): 1.11 | cell density (OD: 600) ([5]; 20 μM): 1.10 | cell density (OD: 600) ([5]; 50 μM): 1.09 | cell density (OD: 600) ([6]; 5 μM, 24 h): 1.66 | cell density (OD: 600) ([6]; 10 μM, 24 h): 1.61 | cell density (OD: 600) ([6]; 20 μM, 24 h): 1.65 | cell density (OD: 600) ([6]; 50 μM, 24 h): 1.62
